# Experimental data reported in patent US11484539B2, “Compounds and their uses for alleviating menopause-associated symptoms” (Estetra SPRL, priority 2018, dated 2022).
# Test system: post-menopausal women
# Assay: Patients leaving the study
# Type: in vivo
# Text: 3. Patients leaving the study
compound,measurement,setting,value
"C[C@]12CC[C@@H]3c4ccc(O)cc4CC[C@H]3[C@@H]1[C@@H](O)[C@@H](O)[C@@H]2O [E4, 1,3,5 (10)-estratrien-3,15alpha,16alpha,17beta-tetrol]",Number of patients leaving the study,2.5 mg,9
same,Number of patients leaving the study,5 mg,11
same,Number of patients leaving the study,10 mg,15
same,Number of patients leaving the study,15 mg,8
